Measurements taken from paper PMC12606047, “Targeting the Liquid–Liquid Separation Region of c‐Maf for Treating Chromosomal Translocations in Multiple Myeloma” (MedComm, 2025).

Assays:
[1] = system: 5TMM3VT mouse myeloma cells; test: 5TMM3VT mouse model; format: in vivo, C57BL/KaLwRij mice; conditions: single treatment; BBA 5 mg/kg, BTZ 1 mg/kg
Method: 5TMM3VT mouse myeloma cells (1 × 10^6) were injected through the tail vein into C57BL/KaLwRij mice from Harlan Laboratories (n = 9 per group). The mice were randomly divided into four groups (Ctrl, BBA, BTZ and BBA+BTZ combination groups). On the third day after modeling, oral administration of PBS, BBA (5 mg/kg) and BTZ (1 mg/kg) was performed twice a week, while combination therapy was administered every other day.

MM PDX tumor = test: MM patient-derived tumor xenograft (PDX) model; format: in vivo, NOD/SCID mice; conditions: IHC and IF, single treatment
Method: The biopsy sample was taken from tumor tissue excised from MM patient at Nanjing Hospital of Chinese Medicine affiliated with Nanjing University of Chinese Medicine. The tissue was then cut into 2.5×2.5×2.5 mm^3 pieces and transplanted subcutaneously into 6-week-old NOD/SCID male mice (n = 6 mice in each group) under anesthesia with 1% sodium pentobarbital. […] This process was repeated three times to ensure stable tumor growth. […] Single treatment was administered every three days, while combination treatment was administered every other day.

c-Maf protein [2] = target: T1, c-Maf protein (Homo sapiens, UniProt O75444); test: Microscale thermophoresis (MST) binding to c-Maf protein; conditions: labelled purified c-Maf protein; read-out: MST dissociation constant (Kd)
T1 construct: made in house; host or cells: prokaryotic (pET-28a vector)
T1 sequence (O75444 1-373): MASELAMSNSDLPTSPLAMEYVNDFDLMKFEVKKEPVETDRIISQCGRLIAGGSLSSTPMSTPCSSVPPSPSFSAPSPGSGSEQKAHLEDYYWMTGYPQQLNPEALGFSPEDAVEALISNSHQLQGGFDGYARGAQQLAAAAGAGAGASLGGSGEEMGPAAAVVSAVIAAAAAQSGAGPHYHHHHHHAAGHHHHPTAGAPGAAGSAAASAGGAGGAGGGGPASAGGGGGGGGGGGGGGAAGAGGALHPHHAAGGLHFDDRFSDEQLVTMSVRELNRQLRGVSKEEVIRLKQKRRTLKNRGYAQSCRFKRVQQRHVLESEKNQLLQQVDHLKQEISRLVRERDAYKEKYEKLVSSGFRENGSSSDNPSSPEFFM
Method: To determine if the screened compound interacts with the c-Maf protein, we used a MonolithTM RED-NHS second generation protein labelling kit (NanoTemper Germany) to fluorescently label 10 µM of purified c-Maf protein. We then mixed various concentrations of the drug with an equal concentration of c-Maf protein and incubated the mixture for 5 min at room temperature. The mixture was then aspirated with a capillary tube and the binding capacity was measured using a new generation biomolecular interaction assay (NanoTemper Germany). The Kd values were calculated using analytical software.

ARP1 cells = test: MTT proliferation assay, ARP1 cells; format: cell-based, human; conditions: ARP1 WT; Table 2 prints no cell line, its BBA value equals the ARP1 IC50 of b29
c-Maf protein [3] = target: T1, c-Maf protein; test: Surface plasmon resonance (SPR) binding to c-Maf protein; conditions: values given in mM; read-out: SPR dissociation constant (Kd)

Molecule | Survival time of 5TMM3VT mice [1] | Expression of c-Maf, Ki67, RNA Pol II, Mtbp, c-Myc and c-Maf/RNA Pol II co-localization in tumors (MM PDX tumor) | Kd (c-Maf protein [2]) | MTT IC50 (ARP1 cells) | Kd (c-Maf protein [3])
CC(C)C[C@H](NC(=O)[C@H](Cc1ccccc1)NC(=O)c1cnccn1)B(O)O [BTZ, bortezomib] | significantly improved | inhibited |  |  | 
Chlorophenylacetamide |  |  | 555 µM | Unstable | 3.31 mM
